Measurements reported in the NIST ThermoML archive (doi:10.1016/j.jct.2013.01.006).
± gives the expanded uncertainty stated by the source.

Conditions: Liquid, Vibrating tube method

F/C=C/C(F)(F)F [trans-1,3,3,3-tetrafluoropropene]
Conditions	mass density [kg/m3]
283.55 K, 99990 kPa	1403.02 ± 1.8
283.56 K, 30000 kPa	1295.8 ± 0.59
283.56 K, 40000 kPa	1316.15 ± 0.69
283.56 K, 50000 kPa	1334.15 ± 0.82
283.56 K, 60000 kPa	1350.35 ± 0.99
283.56 K, 69990 kPa	1365.2 ± 1.2
283.56 K, 79990 kPa	1378.71 ± 1.4
283.56 K, 90000 kPa	1391.26 ± 1.6
283.57 K, 1000 kPa	1211.68 ± 0.52
283.57 K, 3000 kPa	1219.58 ± 0.5
283.57 K, 5000 kPa	1227.04 ± 0.49
283.57 K, 10000 kPa	1243.89 ± 0.48
283.57 K, 15000 kPa	1258.79 ± 0.48
283.57 K, 20000 kPa	1272.23 ± 0.51
283.57 K, 25000 kPa	1284.48 ± 0.55
293.41 K, 1000 kPa	1180.6 ± 0.55
293.41 K, 3000 kPa	1189.81 ± 0.53
293.41 K, 5000 kPa	1198.39 ± 0.51
293.41 K, 10000 kPa	1217.4 ± 0.49
293.41 K, 15000 kPa	1234.07 ± 0.49
293.41 K, 20000 kPa	1248.82 ± 0.5
293.41 K, 25000 kPa	1262.23 ± 0.53
293.41 K, 30000 kPa	1274.5 ± 0.57
293.41 K, 40000 kPa	1296.38 ± 0.67
293.41 K, 50000 kPa	1315.5 ± 0.79
293.41 K, 60000 kPa	1332.69 ± 0.94
293.41 K, 69990 kPa	1348.45 ± 1.1
293.41 K, 79990 kPa	1362.63 ± 1.3
293.41 K, 100010 kPa	1387.95 ± 1.7
293.42 K, 90000 kPa	1375.74 ± 1.5
303.38 K, 1000 kPa	1149.74 ± 0.65
303.38 K, 3000 kPa	1160.58 ± 0.59
303.39 K, 5000 kPa	1170.47 ± 0.55
303.39 K, 10000 kPa	1192.27 ± 0.51
303.39 K, 15000 kPa	1210.87 ± 0.5
303.39 K, 20000 kPa	1227.2 ± 0.51
303.39 K, 25000 kPa	1241.85 ± 0.52
303.39 K, 30000 kPa	1255.15 ± 0.56
303.39 K, 40000 kPa	1278.68 ± 0.64
303.39 K, 60000 kPa	1317.3 ± 0.9
303.4 K, 50000 kPa	1299.13 ± 0.76
303.4 K, 70000 kPa	1333.74 ± 1.1
303.4 K, 80010 kPa	1348.59 ± 1.3
303.4 K, 90000 kPa	1362.33 ± 1.5
303.4 K, 100000 kPa	1375.04 ± 1.6
313.33 K, 1000 kPa	1112.39 ± 0.71
313.33 K, 3000 kPa	1125.51 ± 0.65
313.34 K, 5000 kPa	1137.25 ± 0.6
313.34 K, 10000 kPa	1162.32 ± 0.54
313.35 K, 15000 kPa	1183.22 ± 0.51
313.35 K, 20000 kPa	1201.24 ± 0.5
313.35 K, 25000 kPa	1217.24 ± 0.52
313.36 K, 30000 kPa	1231.65 ± 0.54
313.36 K, 40000 kPa	1256.89 ± 0.62
313.36 K, 80000 kPa	1330.76 ± 1.2
313.36 K, 90000 kPa	1345.06 ± 1.4
313.36 K, 99990 kPa	1358.3 ± 1.6
313.37 K, 50000 kPa	1278.66 ± 0.72
313.37 K, 60000 kPa	1297.92 ± 0.85
313.37 K, 69990 kPa	1315.13 ± 1.1
323.14 K, 1000 kPa	1074.03 ± 0.83
323.15 K, 3000 kPa	1090.3 ± 0.76
323.15 K, 5000 kPa	1104.41 ± 0.67
323.15 K, 10000 kPa	1133.63 ± 0.58
323.15 K, 15000 kPa	1157.19 ± 0.53
323.15 K, 20000 kPa	1177.23 ± 0.51
323.15 K, 25000 kPa	1194.71 ± 0.51
323.15 K, 30000 kPa	1210.33 ± 0.53
323.15 K, 40000 kPa	1237.43 ± 0.6
323.15 K, 50000 kPa	1260.55 ± 0.69
323.15 K, 60000 kPa	1280.78 ± 0.81
323.15 K, 69990 kPa	1299.16 ± 1
323.15 K, 80000 kPa	1315.46 ± 1.2
323.15 K, 90000 kPa	1330.39 ± 1.3
323.15 K, 100000 kPa	1344.16 ± 1.5
333.06 K, 3000 kPa	1051.57 ± 0.91
333.06 K, 5000 kPa	1068.99 ± 0.76
333.07 K, 10000 kPa	1103.45 ± 0.64
333.07 K, 15000 kPa	1130.26 ± 0.56
333.07 K, 20000 kPa	1152.47 ± 0.53
333.07 K, 25000 kPa	1171.67 ± 0.51
333.08 K, 30000 kPa	1188.58 ± 0.52
333.08 K, 40000 kPa	1217.68 ± 0.57
333.08 K, 50000 kPa	1242.22 ± 0.66
333.09 K, 60000 kPa	1263.59 ± 0.77
333.09 K, 70000 kPa	1282.87 ± 1
333.1 K, 79990 kPa	1299.88 ± 1.1
333.1 K, 89990 kPa	1315.41 ± 1.3
333.1 K, 99990 kPa	1329.71 ± 1.5
343.06 K, 3000 kPa	1007.98 ± 1.2
343.07 K, 5000 kPa	1030.29 ± 0.91
343.07 K, 10000 kPa	1071.6 ± 0.71
343.07 K, 15000 kPa	1102.25 ± 0.6
343.07 K, 20000 kPa	1127.03 ± 0.54
343.07 K, 25000 kPa	1148.05 ± 0.52
343.07 K, 30000 kPa	1166.47 ± 0.51
343.07 K, 40000 kPa	1197.69 ± 0.55
343.07 K, 50000 kPa	1223.79 ± 0.64
343.07 K, 60000 kPa	1246.3 ± 0.74
343.07 K, 70000 kPa	1266.4 ± 0.99
343.08 K, 79990 kPa	1284.18 ± 1.1
343.08 K, 90000 kPa	1300.35 ± 1.2
343.08 K, 100000 kPa	1315.2 ± 1.4
352.97 K, 3000 kPa	957.49 ± 1.6
352.97 K, 60000 kPa	1229.3 ± 0.71
352.97 K, 70000 kPa	1250.62 ± 0.97
352.97 K, 79990 kPa	1269.19 ± 1.1
352.97 K, 89990 kPa	1285.98 ± 1.2
352.97 K, 99990 kPa	1301.43 ± 1.4
352.98 K, 5000 kPa	987.78 ± 1.1
352.98 K, 15000 kPa	1073.64 ± 0.65
352.98 K, 20000 kPa	1101.36 ± 0.57
352.98 K, 25000 kPa	1124.45 ± 0.53
352.98 K, 30000 kPa	1144.41 ± 0.51
352.98 K, 40000 kPa	1177.85 ± 0.54
352.98 K, 50000 kPa	1205.56 ± 0.61
352.99 K, 10000 kPa	1038.43 ± 0.82
362.93 K, 3000 kPa	894.35 ± 2.5
362.93 K, 5000 kPa	939.3 ± 1.5
362.94 K, 10000 kPa	1003.24 ± 0.96
362.94 K, 15000 kPa	1044.15 ± 0.72
362.94 K, 20000 kPa	1075.24 ± 0.6
362.94 K, 25000 kPa	1100.62 ± 0.54
362.94 K, 30000 kPa	1122.31 ± 0.51
362.95 K, 40000 kPa	1158.16 ± 0.53
362.95 K, 50000 kPa	1187.53 ± 0.58
362.95 K, 60000 kPa	1212.48 ± 0.68
362.95 K, 70010 kPa	1234.72 ± 0.95
362.95 K, 80000 kPa	1254.07 ± 1
362.96 K, 90000 kPa	1271.47 ± 1.1
362.96 K, 99990 kPa	1287.46 ± 1.3

FCC(F)(F)F [1,1,1,2-tetrafluoroethane]
Conditions	mass density [kg/m3]
283.52 K, 1010 kPa	1262.83 ± 0.53
283.53 K, 5000 kPa	1279.7 ± 0.52
283.54 K, 10000 kPa	1298.2 ± 0.51
283.54 K, 20000 kPa	1329.16 ± 0.58
283.54 K, 39990 kPa	1376.78 ± 0.81
283.54 K, 60010 kPa	1413.66 ± 1.2
283.54 K, 80020 kPa	1444.29 ± 1.6
303.26 K, 1000 kPa	1188.74 ± 0.7
303.27 K, 5000 kPa	1212.6 ± 0.6
303.28 K, 10000 kPa	1237.15 ± 0.54
303.29 K, 19980 kPa	1275.91 ± 0.56
303.29 K, 40010 kPa	1332.33 ± 0.75
303.3 K, 60000 kPa	1374.15 ± 1.1
303.3 K, 79980 kPa	1408.2 ± 1.5
323.07 K, 1280 kPa	1102.44 ± 1
323.08 K, 5000 kPa	1136.68 ± 0.78
323.08 K, 10000 kPa	1170.98 ± 0.62
323.09 K, 20000 kPa	1220.67 ± 0.56
323.11 K, 60000 kPa	1335.02 ± 0.95
323.11 K, 80000 kPa	1372.84 ± 1.4
323.12 K, 40000 kPa	1287.6 ± 0.69
343.02 K, 10000 kPa	1097 ± 0.78
343.02 K, 20000 kPa	1162.16 ± 0.58
343.02 K, 39990 kPa	1241.93 ± 0.63
343.02 K, 60010 kPa	1295.73 ± 0.86
343.03 K, 4990 kPa	1045.24 ± 1.2
343.03 K, 80010 kPa	1337.58 ± 1.3
343.05 K, 2090 kPa	997.14 ± 1.7
362.95 K, 5000 kPa	921.91 ± 2.2
362.95 K, 10000 kPa	1012.79 ± 1.1
362.96 K, 20000 kPa	1101.23 ± 0.65
362.97 K, 40000 kPa	1196.59 ± 0.6
362.98 K, 60000 kPa	1257.2 ± 0.78
362.99 K, 80000 kPa	1302.95 ± 1.2
